Assay results published in patent US9695154B2, “Heteroaryl inhibitors of sumo activating enzyme” (MILLENNIUM PHARMACEUTICALS, INC., priority 2013, dated 2017).
pIC50: −log10 of the molar value.

Target: T1, recombinant human SAE enzyme (Homo sapiens, UniProt Q9UBT2)
T1 sequence (Q9UBT2 1-640): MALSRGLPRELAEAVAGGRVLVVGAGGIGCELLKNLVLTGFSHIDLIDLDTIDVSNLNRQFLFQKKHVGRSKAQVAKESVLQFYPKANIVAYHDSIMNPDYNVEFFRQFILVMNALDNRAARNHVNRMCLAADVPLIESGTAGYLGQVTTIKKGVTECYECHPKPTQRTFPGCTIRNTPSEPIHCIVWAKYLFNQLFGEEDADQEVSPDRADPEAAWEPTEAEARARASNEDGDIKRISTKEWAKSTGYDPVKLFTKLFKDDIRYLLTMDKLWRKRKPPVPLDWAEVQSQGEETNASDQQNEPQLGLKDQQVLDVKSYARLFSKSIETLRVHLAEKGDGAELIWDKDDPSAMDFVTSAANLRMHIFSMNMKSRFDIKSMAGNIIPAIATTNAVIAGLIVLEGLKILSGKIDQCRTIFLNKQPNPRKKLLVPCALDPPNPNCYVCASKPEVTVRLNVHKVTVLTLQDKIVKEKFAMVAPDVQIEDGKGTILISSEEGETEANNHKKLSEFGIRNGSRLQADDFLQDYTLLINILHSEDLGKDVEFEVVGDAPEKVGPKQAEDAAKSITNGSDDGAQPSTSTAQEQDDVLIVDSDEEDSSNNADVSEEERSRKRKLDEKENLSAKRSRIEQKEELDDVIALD
T1 sequence (Q9UBE0 1-346 partner): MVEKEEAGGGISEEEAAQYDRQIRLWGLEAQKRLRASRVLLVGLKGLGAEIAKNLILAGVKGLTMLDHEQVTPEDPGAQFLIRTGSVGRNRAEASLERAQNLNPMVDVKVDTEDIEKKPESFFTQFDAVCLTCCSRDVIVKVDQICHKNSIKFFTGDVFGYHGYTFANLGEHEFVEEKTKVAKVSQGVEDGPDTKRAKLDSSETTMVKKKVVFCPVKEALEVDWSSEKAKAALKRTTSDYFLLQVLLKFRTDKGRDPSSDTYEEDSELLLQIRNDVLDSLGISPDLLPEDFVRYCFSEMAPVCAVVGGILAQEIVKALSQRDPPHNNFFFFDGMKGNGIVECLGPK
Assay: SAE HTRF Enzyme Assay
Type: biochemical
Conditions: for pIC50: class symbols A-C; for inhibition at 0.111 µM: compound concentration 0.111 μM, read-out: Percent Inhibition
Outline: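 Measured as FRET after a 2 h antibody step: SAE (0.11 nM) thioester transfer of Sumo-Flag to Ubc9-GST, 0.5 μM ATP, 24° C for 105 min, quenched with 20 mM EDTA. Output is IC50 or percent inhibition at a single concentration.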

NS(=O)(=O)OC[C@H]1C[C@@H](Nc2ncncc2C(=O)c2ccn(Cc3cccc(F)c3F)n2)C[C@@H]1O [Compound I-219, {(1R,2S,4R)-4-[(5-{[1-(2,3-difluorobenzyl)-1H-pyrazol-3-yl]carbonyl}pyrimidin-4-yl)amino]-2-hydroxycyclopentyl}methyl sulfamate]
pIC50: > 8.00 | inhibition at 0.111 µM: 99%

CC(C)n1ccc(C(=O)c2cncnc2N[C@@H]2C[C@H](COS(N)(=O)=O)[C@@H](O)[C@H]2O)n1 [Compound I-220, [(1R,2R,3S,4R)-2,3-dihydroxy-4-({5-[(1-isopropyl-1H-pyrazol-3-yl)carbonyl]pyrimidin-4-yl}amino)cyclopentyl]methyl sulfamate]
pIC50: 7.00 to 8.00 | inhibition at 0.111 µM: 57%

NS(=O)(=O)OC[C@H]1C[C@@H](Nc2ncncc2C(=O)c2ccn(Cc3cccc(I)c3)n2)[C@H](O)[C@@H]1O [Compound I-221, {(1R,2R,3S,4R)-2,3-dihydroxy-4-[(5-{[1-(3-iodobenzyl)-1H-pyrazol-3-yl]carbonyl}pyrimidin-4-yl)amino]cyclopentyl}methyl sulfamate]
pIC50: > 8.00 | inhibition at 0.111 µM: 100%

NS(=O)(=O)OC[C@H]1C[C@@H](Nc2ncncc2C(=O)c2ccn(CC3CCOCC3)c2)[C@@H](F)[C@@H]1O [Compound I-222, {(1R,2R,3R,4R)-3-fluoro-2-hydroxy-4-[(5-{[1-(tetrahydro-2H-pyran-4-ylmethyl)-1H-pyrrol-3-yl]carbonyl}pyrimidin-4-yl)amino]cyclopentyl}methyl sulfamate]
pIC50: 7.00 to 8.00 | inhibition at 0.111 µM: 63%

NS(=O)(=O)OC[C@H]1C[C@@H](Nc2ccncc2C(=O)c2ccn(Cc3cccc(Br)c3)n2)C[C@@H]1O [Compound I-223, {(1R,2S,4R)-4-[(3-{[1-(3-bromobenzyl)-1H-pyrazol-3-yl]carbonyl}pyridin-4-yl)amino]-2-hydroxycyclopentyl}methyl sulfamate]
pIC50: > 8.00 | inhibition at 0.111 µM: 99%

NS(=O)(=O)OC[C@H]1C[C@@H](Nc2ncncc2C(=O)c2ccn(Cc3cccc(OC(F)F)c3)c2)[C@@H](F)[C@@H]1O [Compound I-224, [(1R,2R,3R,4R)-4-{[5-({1-[3-(difluoromethoxy)benzyl]-1H-pyrrol-3-yl}carbonyl)pyrimidin-4-yl]amino}-3-fluoro-2-hydroxycyclopentyl]methyl sulfamate]
pIC50: > 8.00 | inhibition at 0.111 µM: 99%

NS(=O)(=O)OC[C@H]1C[C@@H](Nc2ncncc2C(=O)c2ccn(Cc3c(F)ccc(F)c3F)n2)[C@H](O)[C@@H]1O [Compound I-225, {(1R,2R,3S,4R)-2,3-dihydroxy-4-[(5-{[1-(2,3,6-trifluorobenzyl)-1H-pyrazol-3-yl]carbonyl}pyrimidin-4-yl)amino]cyclopentyl}methyl sulfamate]
pIC50: > 8.00 | inhibition at 0.111 µM: > 99%

NS(=O)(=O)OC[C@H]1C[C@@H](Nc2ncncc2C(=O)c2ccn(Cc3ccccc3C(F)(F)F)n2)C[C@@H]1O [Compound I-226, [(1R,2S,4R)-2-hydroxy-4-{[5-({1-[2-(trifluoromethyl)benzyl]-1H-pyrazol-3-yl}carbonyl)pyrimidin-4-yl]amino}cyclopentyl]methyl sulfamate]
pIC50: 7.00 to 8.00 | inhibition at 0.111 µM: 85%

NS(=O)(=O)OC[C@H]1C[C@@H](Nc2ncncc2C(=O)c2ccn(Cc3ccccc3)n2)[C@H](F)[C@@H]1O [Compound I-227, [(1R,2R,3S,4R)-4-({5-[(1-benzyl-1H-pyrazol-3-yl)carbonyl]pyrimidin-4-yl}amino)-3-fluoro-2-hydroxycyclopentyl]methyl sulfamate]
pIC50: > 8.00 | inhibition at 0.111 µM: 97%

CC#CCn1ccc(C(=O)c2cncnc2N[C@@H]2C[C@H](COS(N)(=O)=O)[C@@H](O)C2)n1 [Compound I-228, {(1R,2S,4R)-4-[(5-{[1-(but-2-yn-1-yl)-1H-pyrazol-3-yl]carbonyl}pyrimidin-4-yl)amino]-2-hydroxycyclopentyl}methyl sulfamate]
pIC50: 7.00 to 8.00 | inhibition at 0.111 µM: 72%

NS(=O)(=O)OC[C@H]1C[C@@H](Nc2ncncc2C(=O)c2ccn(Cc3cccc(Oc4ccc(F)cc4)c3)n2)[C@H](O)[C@@H]1O [Compound I-229, [(1R,2R,3S,4R)-4-{[5-({1-[3-(4-fluorophenoxy)benzyl]-1H-pyrazol-3-yl}carbonyl)pyrimidin-4-yl]amino}-2,3-dihydroxycyclopentyl]methyl sulfamate]
pIC50: 7.00 to 8.00 | inhibition at 0.111 µM: 88%

NS(=O)(=O)OC[C@H]1C[C@@H](Nc2ncncc2C(=O)c2ccn(Cc3cc(C(F)(F)F)ccc3F)n2)[C@H](O)[C@@H]1O [Compound I-230, [(1R,2R,3S,4R)-4-{[5-({1-[2-fluoro-5-(trifluoromethyl)benzyl]-1H-pyrazol-3-yl}carbonyl)pyrimidin-4-yl]amino}-2,3-dihydroxycyclopentyl]methyl sulfamate]
pIC50: > 8.00 | inhibition at 0.111 µM: 98%

NS(=O)(=O)OC[C@H]1C[C@@H](Nc2ncncc2C(=O)c2ccn(Cc3ccc(F)o3)c2)[C@@H](F)[C@@H]1O [Compound I-231, [(1R,2R,3R,4R)-3-fluoro-4-{[5-({1-[(5-fluoro-2-furyl)methyl]-1H-pyrrol-3-yl}carbonyl)pyrimidin-4-yl]amino}-2-hydroxycyclopentyl]methyl sulfamate]
pIC50: > 8.00 | inhibition at 0.111 µM: 99%

NS(=O)(=O)OC[C@H]1C[C@@H](Nc2ncncc2C(=O)c2ccn(Cc3sccc3Cl)n2)C[C@@H]1O [Compound I-232, [(1R,2S,4R)-4-{[5-({1-[(3-chloro-2-thienyl)methyl]-1H-pyrazol-3-yl}carbonyl)pyrimidin-4-yl]amino}-2-hydroxycyclopentyl]methyl sulfamate]
pIC50: > 8.00 | inhibition at 0.111 µM: 97%

NS(=O)(=O)OC[C@H]1C[C@@H](Nc2ccncc2C(=O)c2ccn(Cc3ccc(Cl)c(Cl)c3)c2)C[C@@H]1O [Compound I-233, {(1R,2S,4R)-4-[(3-{[1-(3,4-dichlorobenzyl)-1H-pyrrol-3-yl]carbonyl}pyridin-4-yl)amino]-2-hydroxycyclopentyl}methyl sulfamate]
pIC50: > 8.00 | inhibition at 0.111 µM: 98%

CCC#CCn1ccc(C(=O)c2cncnc2N[C@@H]2C[C@H](COS(N)(=O)=O)[C@@H](O)C2)n1 [Compound I-234, {(1R,2S,4R)-2-hydroxy-4-[(5-{[1-(pent-2-yn-1-yl)-1H-pyrazol-3-yl]carbonyl}pyrimidin-4-yl)amino]cyclopentyl}methyl sulfamate]
pIC50: 7.00 to 8.00 | inhibition at 0.111 µM: 91%

NS(=O)(=O)OC[C@H]1C[C@@H](Nc2ncncc2C(=O)c2ccn(Cc3ccc(C(F)F)o3)n2)C[C@@H]1O [Compound I-235, [(1R,2S,4R)-4-({5-[(1-{[5-(difluoromethyl)-2-furyl]methyl}-1H-pyrazol-3-yl)carbonyl]pyrimidin-4-yl}amino)-2-hydroxycyclopentyl]methyl sulfamate]
pIC50: > 8.00 | inhibition at 0.111 µM: 100%

COCC#CCn1ccc(C(=O)c2cncnc2N[C@@H]2C[C@H](COS(N)(=O)=O)[C@@H](O)[C@@H]2F)c1 [Compound I-236, {(1R,2R,3R,4R)-3-fluoro-2-hydroxy-4-[(5-{[1-(4-methoxybut-2-yn-1-yl)-1H-pyrrol-3-yl]carbonyl}pyrimidin-4-yl)amino]cyclopentyl}methyl sulfamate]
pIC50: 7.00 to 8.00 | inhibition at 0.111 µM: 54%

NS(=O)(=O)OC[C@H]1C[C@@H](Nc2ncncc2C(=O)c2ccn(Cc3cccc4nccn34)c2)[C@@H](F)[C@@H]1O [Compound I-237, {(1R,2R,3R,4R)-3-fluoro-2-hydroxy-4-[(5-{[1-(imidazo[1,2-a]pyridin-5-ylmethyl)-1H-pyrrol-3-yl]carbonyl}pyimidin-4-yl)amino]cyclopentyl}methyl sulfamate]
pIC50: 7.00 to 8.00 | inhibition at 0.111 µM: 85%

Cc1cc(C(=O)c2cncnc2N[C@@H]2C[C@H](COS(N)(=O)=O)[C@@H](O)C2)nn1Cc1cccc(Br)n1 [Compound I-238, [(1R,2S,4R)-4-{[5-({1-[(6-bromopyridin-2-yl)methyl]-5-methyl-1H-pyrazol-3-yl}carbonyl)pyrimidin-4-yl]amino}-2-hydroxycyclopentyl]methyl sulfamate]
pIC50: > 8.00 | inhibition at 0.111 µM: 99%

NS(=O)(=O)OC[C@H]1C[C@@H](Nc2ncncc2C(=O)c2ccn(Cc3cc(Br)ccc3Cl)n2)C[C@@H]1O [Compound I-239, {(1R,2S,4R)-4-[(5-{[1-(5-bromo-2-chlorobenzyl)-1H-pyrazol-3-yl]carbonyl}pyrimidin-4-yl)amino]-2-hydroxycyclopentyl}methyl sulfamate]
pIC50: > 8.00 | inhibition at 0.111 µM: 99%
